For one series, the system named is rat osteocalcin promoter. Description: OCN (osteocalcin) promoter assay. The series is classed as cell-based. As to conditions: RG-15 (ROS 17/2.8) cells, 48 hr treatment, luciferase reporter. The method, then:
3. The OCN (osteocalcin) Promoter Assay
The OCN Promoter Assay is an indicator and marker for osteoporosis. […] Preferred assay results are less than 50 nM.
(3) Materials and Method for the OCN Promoter Assay:
The activation of osteocalcin by VDR ligands was evaluated in a rat osteoblast-like cell line RG-15 (ROS 17/2.8) stably expressing rat osteocalcin promoter fused with luciferase reporter gene. […] Confluent RG-15 cells maintained in DMEM/F-12 medium (3:1) containing 5% FBS, 300 μg/ml G418 and at 37° C. under 5% CO2/95% air atmosphere were trypsinized (0.25% trypsin) and plated into white opaque 96-well cell culture plates (25000 cells/well). After 24 hr, cells (in DMEM/F-12 medium+2% FBS) were treated with various concentrations of compounds, dissolved in DMSO. The final DMSO concentration remained at 0.01% (v/v). After 48 hr treatment, the medium was removed, cells were lysed with 50 μl of lysis buffer (From Luciferase reporter assay system, Roche Diagnostics, Indianapolis, Ind.) and assayed for luciferase activity using the Luciferase Reporter Gene Assay kit from Boehringer Mannheim as per manufacturer's specifications.
For orientation: A reporter such as luciferase makes a cellular process visible.

The subject of a further series is KERtr cells. Description: Keratinocyte proliferation assay. In kind it is cell-based. The conditions noted are these: Homo sapiens, 72 hr, BrdU incorporation, read-out: Kera. Prolif. IC50. The method, then: 5. The Keratinocte Proliferation Assay
This Assay is indicative for the treatment of psoriasis.
(5) The Keratinocyte Proliferation Assay:
KERtr cells (Human skin keratinocyte transformed with a retrovirus vector, obtained from ATCC) were plated in 96-well flat-bottomed plates (3000 cells/well) in 100 µl keratinocyte serum free medium supplemented with bovine pituitary extract in the absence of EGF (Life Technologies, Rockville, Md.) and incubated at 37° C. for two days. The cells were treated with various concentrations of VDR ligands (ten-fold serial dilution from 10,000 nM to 0.1 nM in triplicate), dissolved in 100 μl keratinocyte serum free medium supplemented with bovine pituitary extract in the absence of EGF and incubated at 37° C. for 72 hr. BrdU (5-bromo-2′-deoxyuridine) incorporation was analyzed as a measure of DNA replication (Cell proliferation ELISA kit, Roche Diagnostics, Indianapolis, Ind.) and absorbance was measured at 405 nm. Potency values (IC50) values were determined as the concentration (nM) of compound that elicited a half-maximal response.

A further series addresses T1, VDR (Homo sapiens, UniProt P11473).
T1 construct: the receptor expression vector pGal4-VDR-LBD (10 ng); expressed in transfected cells; host or cells: Caco-2 cells
T1 sequence (P11473 127-423 limits assumed): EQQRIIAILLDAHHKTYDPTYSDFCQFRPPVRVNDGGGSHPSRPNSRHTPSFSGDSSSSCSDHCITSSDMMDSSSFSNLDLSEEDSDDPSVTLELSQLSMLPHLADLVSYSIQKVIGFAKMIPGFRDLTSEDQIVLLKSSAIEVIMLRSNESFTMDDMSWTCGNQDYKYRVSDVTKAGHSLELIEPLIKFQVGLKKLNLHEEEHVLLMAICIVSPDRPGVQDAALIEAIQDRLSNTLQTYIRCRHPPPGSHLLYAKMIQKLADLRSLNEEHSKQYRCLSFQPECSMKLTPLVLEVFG
Description: Caco-2 cell co-transfection assay (VDR CTF). In kind it is cell-based. The conditions noted are these: Caco-2 cells, pGal4-VDR-LBD co-transfection, luciferase reporter. How it is done: 2. The Caco-2 Cell Co-Transfection Assay:
The Caco-2 cell assay is an indicator for the undesirable condition of hypercalcemia. This co-transfection assay is a surrogate assay for in vivo calcemic activity of VDR ligands. […] Preferred assay results are greater than 1000 nM.
(2) Materials and Method for The Caco-2 Cell Assay:
Caco-2 cells, grown in phenol red free, DMEM (Invitrogen, Carlsbad, Calif.) containing 10% charcoal-stripped FCS (Hyclone, Logan, Utah), were transfected with Fugene 6 reagent (Roche Diagnostics, Indianapolis, Ind.). Cells (5000/well) were plated 18 h before transfection in a 96 well plate. The Cells were transfected with Gal4-responsive reporter pFRLuc (150 ng, Stratagene, La Jolla Calif.) and the receptor expression vector pGal4-VDR-LBD (10 ng), along with Fugene 6 reagent (0.2 μl/well). The DNA-Fugene complex was formed by incubating the mixture for 30 min at room temperature. The cells were transfected in triplicate for 5 h, and treated with various concentrations of VDR ligands (form 0.01 nM to 10,000 nM concentration range) 18 h post-transfection. The luciferase activity was quantified using Steady-Glo reagent kit (Promega, Madison, Wis.) as per manufacturer's specifications.

Series [1] is described as follows: Mouse hypercalcemia assay. As to conditions: oral gavage for 6 days, serum ionized calcium 6 hours after last dosing.
Description: The Mouse Hypercalcemia Assay is a six day hypercalcemia test for toxicity and selectivity. Acceptable test results are levels greater than 300 μg/kg/day. Preferred assay results are levels greater than 1000 μg/day.
(4) Materials and Method for the Mouse Hypercalcemia Assay:
Weanling, virus—antibody-free, five to six weeks old female DBF mice (Harlan, Indianapolis, Ind.) are used for all the studies. Animals are allowed to acclimate to local vivarium conditions for 2 days. […] The animals then are divided into groups with 4-5 mice per group. Different doses of test compounds prepared in 10% Ethanol and 90% sesame oil are administered to mice orally via gavage for 6 days. 1α-25(OH)2D3 0.5 μg/kg/d was also given to one group of mice as the positive control. […] Raw data of group differences is assessed by analysis of variance (ANOVA) using Fisher's protected least significant difference (PLSD) where the significance level was P<0.05.
A further series has as its target T2, RXR-VDR heterodimer (Homo sapiens, UniProt P11473).
T2 construct: Add the Gal4-RXR-DEF and VP16-VDR-LBD; expressed in transfected cells; host or cells: SaOS-2 cells
T2 sequence (P11473 127-423 limits assumed): T1 sequence (P11473 127-423 limits assumed)
T2 sequence (P19793 201-462 partner limits assumed): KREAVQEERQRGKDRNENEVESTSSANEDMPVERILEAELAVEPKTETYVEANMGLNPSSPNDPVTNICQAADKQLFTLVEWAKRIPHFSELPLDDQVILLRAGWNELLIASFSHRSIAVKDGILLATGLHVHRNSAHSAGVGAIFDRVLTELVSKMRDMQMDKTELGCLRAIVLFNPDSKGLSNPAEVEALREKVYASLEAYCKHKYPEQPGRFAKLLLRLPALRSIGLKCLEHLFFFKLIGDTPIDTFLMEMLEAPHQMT
The series is described as follows: RXR-VDR heterodimerization assay (SaOS-2 cells). As to conditions: Gal4-RXR-DEF / VP16-VDR-LBD, luciferase reporter. In kind it is cell-based. The source says: 1. The RXR-VDR heterodimer Assay:
This assay provides the VDR activity of a test compound.
(1) Materials and Method for RXR-VDR Heterodimerization Assay:
Luciferase Assay Reagent: • Use Steady-Glo Luciferase Reagent from Promega (Cat # E2550) Consists of:
Add plain DMEM media to tubes for mixing the DNA
Add the Reporter gene pFR-LUC
Add the Gal4-RXR-DEF and VP16-VDR-LBD
Make a stock solution of the compounds in DMSO
Further dilute in D-MEM (Low Glucose—With out Phenol Red)
Read the plates after drug treatment
Add Steady-Glo Luciferase Reagent mixture/wells
Count each well using a Luminescence counter, Top Count NXT by Packard

In general, EC50 refers to the concentration at which the effect is half-maximal. Usually IC50 stands for the concentration needed to halve the response being measured. In the case of `CCC(CC)(c1ccc(OS(C)(=O)=O)cc1)c1ccc(OCC(O)C(C)(C)C)c(Cl)c1` (racemic) [Ex. 43, 51, 3′-[3-chloro-4-(2-hydroxy-3,3-dimethylbutoxy)phenyl]-3′-(4-methylsulfonyloxyphenyl)pentane], in the series on rat osteocalcin promoter (Rattus norvegicus, 48 h), the EC50 was 7.53 nM. The IC50 in the series with KERtr cells is 4 nM.

In the case of `CCC(CC)(c1ccc(OC[C@H](O)C(C)(C)C)c(C)c1)c1ccc(OS(C)(=O)=O)c(C)c1` (single isomer, unassigned) [Ex. 2, 3′-[4-(2-hydroxy-3,3-dimethylbutoxy)-3-methylphenyl]-3′-[4-(methanesulfonyloxy)-3-methylphenyl]pentane], the figures for the EC50 at VDR and in the series on rat osteocalcin promoter were 46.5 nM and 5.1 nM, respectively. Moreover, in series [1], the “Mouse Hypercal” value is 50 µg/kg/day.

With `CCC(CC)(c1ccc(OC[C@H](O)C(C)(C)C)c(C)c1)c1ccc(OS(C)(=O)=O)c(C)c1` (single isomer, unassigned) [Ex. 3, 3′-[4-(2-hydroxy-3,3-dimethylbutoxy)-3-methylphenyl]-3′-[4-(methanesulfonyloxy)-3-methylphenyl]pentane], the EC50 was 133 nM on VDR and 16.3 nM in the series on rat osteocalcin promoter. For the same compound, in series [1], the “Mouse Hypercal” value is 50 µg/kg/day.

For the compound `CCC(CC)(c1ccc(NS(C)(=O)=O)c(C)c1)c1ccc(OCC(O)C(C)(C)C)c(C)c1` (single isomer, unassigned) [Ex. 14, 3′-[4-(2-Hydroxy-3,3-dimethylbutoxy)-3-methylphenyl]-3′-[4-(methanesulfonylamino)-3-methylphenyl]pentane], the EC50 at VDR was 89 nM; in the series on rat osteocalcin promoter (Rattus norvegicus, 48 h) it was 9.77 nM. Further, in the series on KERtr cells, the IC50 amounted to 2 nM. Besides, the “Mouse Hypercal” value in series [1] was <300 µg/kg/day.

As to `CCC(CC)(c1ccc(OCC(O)C(C)(C)C)c(C)c1)c1ccc(N(C)S(C)(=O)=O)c(C)c1` (single isomer, unassigned) [Ex. 21, N-(4-{1-ethyl-1-[4-(2-hydroxy-3,3-dimethyl-butoxy)-3-methyl-phenyl]-propyl}-2-methyl-phenyl)-N-methyl-methanesulfonamide], in the series with rat osteocalcin promoter, the EC50 was found to be 124 nM. For the same compound, in the series on KERtr cells, the IC50 was 67 nM.

For `CCC(CC)(c1ccc(OS(C)(=O)=O)cc1)c1ccc(OCC(O)C(C)(C)C)c(Cl)c1` (single isomer, unassigned) [Ex. 44, 3′-[3-chloro-4-(2-hydroxy-3,3-dimethylbutoxy)phenyl]-3′-(4-methylsulfonyloxyphenyl)pentane], the EC50 at RXR-VDR heterodimer came out at 2.21 nM; at VDR it was 86.6 nM; in the series with rat osteocalcin promoter, 2.4 nM.

As to `Cc1cc(C2(c3ccc(OCC(=O)C(C)(C)C)c(C)c3)CCCCC2)ccc1OCC(=O)C(C)(C)C` [CC, 1-(4-{1-[4-(3,3-Dimethyl-2-oxo-butoxy)-3-methyl-phenyl]-cyclohexyl}-2-methyl-phenoxy)-3,3-dimethyl-butan-2-one, reference compound], the EC50 was found to be 710000 nM on VDR and 10000 nM in the series with rat osteocalcin promoter (Rattus norvegicus, 48 h). Besides, the “Mouse Hypercal” value in series [1] is >30000 µg/kg/day.

`CCC(CC)(c1ccc(OS(=O)(=O)C(F)(F)F)cc1)c1ccc(OCC(=O)C(C)(C)C)c(Cl)c1` [Ex 46, 52, 3′-[3-chloro-4-(2-Oxo-3.3-dimethylbutoxy)]-3′-(4-trifluoromethylsulfonyloxyphenyl)pentane]: the EC50 with rat osteocalcin promoter (Rattus norvegicus, 48 h) came out at 217 nM. The IC50 in the series on KERtr cells is 90 nM.

Take `CCC(CC)(c1ccc(OCC(=O)C(C)(C)C)c(C)c1)c1ccc(OS(=O)(=O)C(F)(F)F)c(C)c1` [Ex. 5, 3′-[4-(2-oxo-3,3-dimethylbutoxy)-3-methylphenyl]-3′-[4-(trifluoromethanesulfonyloxy)-3-methylphenyl]pentane]: the EC50 on VDR turned out to be 1590 nM; in the series on rat osteocalcin promoter (Rattus norvegicus, 48 h), 20.8 nM. The “Mouse Hypercal” value in series [1] is >500 µg/kg/day.

As for `CCC(CC)(c1ccc(OCC(O)C(C)(C)C)c(C)c1)c1ccc(OS(=O)(=O)C(F)(F)F)c(C)c1` (stereo not drawn) [Ex. 6, 3′-[4-(2-hydroxy-3,3-dimethylbutoxy)-3-methylphenyl]-3′-[4-(trifluoromethanesulfonyloxy)-3-methylphenyl]pentane], the EC50 at VDR was 1140 nM; in the series on rat osteocalcin promoter (Rattus norvegicus, 48 h) it was 11.3 nM. Further, in series [1], the “Mouse Hypercal” value is 300 µg/kg/day.

Regarding `CCC(CC)(c1ccc(OCC(=O)C(C)(C)C)c(C)c1)c1ccc(OS(=O)(=O)CC(F)(F)F)c(C)c1` [Ex. 7], the EC50 on VDR worked out at 331 nM; in the series with rat osteocalcin promoter (Rattus norvegicus, 48 h), 84 nM. For the same compound, the “Mouse Hypercal” value in series [1] was 100 µg/kg/day.

With `CCC(CC)(c1ccc(NS(C)(=O)=O)c(C)c1)c1ccc(OCC(=O)C(C)(C)C)c(C)c1` [Ex. 17, N-(4-{1-[4-(3,3-Dimethyl-2-oxo-butoxy)-3-methyl-phenyl]-1-ethyl-propyl}-2-methyl-phenyl)-methanesulfonamide], the EC50 with rat osteocalcin promoter (Rattus norvegicus, 48 h) turned out to be 3.75 nM. For the same compound, in the series with KERtr cells, the IC50 came to 2 nM.

Consider `CCc1cc(C(CC)(CC)c2ccc(OS(C)(=O)=O)cc2)ccc1OCC(=O)C(C)(C)C` [Ex. 39, 3′-[4-(2-oxo-3,3-dimethylbutoxy)-3-ethylphenyl]-3′-[4-methylsulfonyloxy-phenyl]pentane], for which the EC50 on VDR came out at 18 nM; in the series with rat osteocalcin promoter (Rattus norvegicus, 48 h) it was 1.79 nM. In series [1], the “Mouse Hypercal” value is <100 µg/kg/day.

Consider `CCC(CC)(c1ccc(OCC(=O)C(C)(C)C)c(C)c1)c1cc(C)c(OS(C)(=O)=O)c(C)c1` [Ex. 40, 3′-[4-(2-oxo-3,3-dimethylbutoxy)-3-methylphenyl]-3′-[3,5-dimethyl-4-methylsulfonyloxy-phenyl]pentane], for which the EC50 on VDR amounted to 375 nM; with rat osteocalcin promoter (Rattus norvegicus, 48 h) it was 1.91 nM. Further, the “Mouse Hypercal” value in series [1] was 300 µg/kg/day.

As to `CCC(CC)(c1ccc(OS(=O)(=O)C(F)(F)F)c(C)c1)c1ccc(OCC(=O)C(C)(C)C)c(Cl)c1` [Ex. 48, 3′-[3-chloro-4-(2-oxo-3.3-dimethylbutoxy)phenyl]-3′-[3-methyl-4-(trifluoromethylsulfonyloxy)phenyl]pentane], the EC50 in the series on rat osteocalcin promoter (Rattus norvegicus, 48 h) stood at 54.1 nM. The IC50 in the series with KERtr cells came out at 13 nM. In series [1], the “Mouse Hypercal” value is <1000 µg/kg/day.
